Assay results reported in patent US11834453B2, “Substituted pyrimido[5,4-d]pyrimidines as HER2 inhibitors” (Array BioPharma Inc., priority 2020, dated 2023).
Like-named read-outs stand apart in the source and are kept apart here.

How the values were obtained:
[1] = molecular target: ErbB2 insYVMA (HER2-YVMA, SEQ ID NO: 2) (Homo sapiens, UniProt P04626, INS775YVMA/P1170A); assay: biochemical; settings: ErbB2 insYVMA enzyme assay
[2] = molecular target: ErbB2 with Exon 20 YVMA insertion (HER2-YVMA) (Homo sapiens (Human), UniProt P04626, INS775YVMA); assay: Cellular phosphorylation assay, constitutive ErbB2 phosphorylation (Y1196) in engineered NIH 3T3 cells, Assay 4; type: cell-based
Chain of ErbB2 with Exon 20 YVMA insertion (HER2-YVMA) (P04626 other isoform, or with tags, fused parts or gaps ins YVMA behind 775): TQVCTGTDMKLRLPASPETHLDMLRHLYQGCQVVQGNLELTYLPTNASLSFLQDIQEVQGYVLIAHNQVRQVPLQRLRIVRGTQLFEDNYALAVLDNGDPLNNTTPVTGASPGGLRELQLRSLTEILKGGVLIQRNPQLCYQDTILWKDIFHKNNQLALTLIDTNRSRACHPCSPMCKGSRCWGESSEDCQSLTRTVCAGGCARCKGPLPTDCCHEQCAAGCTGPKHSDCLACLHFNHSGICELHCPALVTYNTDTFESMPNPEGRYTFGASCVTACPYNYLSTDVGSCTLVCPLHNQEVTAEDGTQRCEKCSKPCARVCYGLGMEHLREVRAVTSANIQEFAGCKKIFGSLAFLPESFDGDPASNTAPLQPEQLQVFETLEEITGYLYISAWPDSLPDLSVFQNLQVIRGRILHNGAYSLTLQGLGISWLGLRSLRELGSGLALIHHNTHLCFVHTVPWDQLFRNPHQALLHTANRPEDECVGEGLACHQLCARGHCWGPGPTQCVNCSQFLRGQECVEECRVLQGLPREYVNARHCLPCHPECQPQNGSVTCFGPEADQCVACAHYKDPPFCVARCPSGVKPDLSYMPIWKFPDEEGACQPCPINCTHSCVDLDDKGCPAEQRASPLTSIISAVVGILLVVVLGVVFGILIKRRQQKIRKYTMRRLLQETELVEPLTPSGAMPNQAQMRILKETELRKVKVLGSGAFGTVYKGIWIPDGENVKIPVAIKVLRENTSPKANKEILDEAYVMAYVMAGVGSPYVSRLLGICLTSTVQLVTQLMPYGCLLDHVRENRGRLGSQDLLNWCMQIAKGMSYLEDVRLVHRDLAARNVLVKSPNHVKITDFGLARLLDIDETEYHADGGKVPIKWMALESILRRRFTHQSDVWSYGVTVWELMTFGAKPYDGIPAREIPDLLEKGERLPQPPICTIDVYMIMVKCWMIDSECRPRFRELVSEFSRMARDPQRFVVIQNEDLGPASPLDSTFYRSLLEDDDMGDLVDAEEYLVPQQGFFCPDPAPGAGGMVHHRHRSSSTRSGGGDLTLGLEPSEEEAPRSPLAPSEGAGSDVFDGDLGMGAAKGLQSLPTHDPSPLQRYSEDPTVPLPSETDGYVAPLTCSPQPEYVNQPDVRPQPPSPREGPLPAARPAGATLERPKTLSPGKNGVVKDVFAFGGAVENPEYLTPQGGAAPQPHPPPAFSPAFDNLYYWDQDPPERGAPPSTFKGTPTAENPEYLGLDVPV
Procedure, shortened: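 Engineered NIH 3T3 cells expressing HER2-YVMA treated with compounds 1 h at 37 °C, then formaldehyde-fixed and methanol-permeabilized. pErbB2 Y1196 detected by in-cell infrared immunofluorescence, normalized to GAPDH. IC50 from the normalized curves.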

[3] = molecular target: T1, MDR1 (P-gp) (Homo sapiens (Human), UniProt P08183); assay: MDR1 transfected MDCKII canine Mdr1 knockout permeability/efflux, Assay 7; settings: dog, MDCK-MDR1
Protocol: Both MDR1 transfected LLC-PK1 (Assay 6) and MDR1 transfected MDCKII canine Mdr1 knockout cells (Assay 7) were cultured and plated according to manufacturer's recommendations with the exception that the passage media for the MDR1 transfected LLC-PK1 cell line contained only 2% fetal bovine serum so as to extend passage time out to seven days.
Both positive and negative controls were used to assess functionality of P-gp or BCRP efflux in the assays. Stock solutions for assay controls and the test article were prepared in DMSO for final test concentration of 1 μM. Final organic concentration in the assay was 1%. All dosing solutions contained 10 μM lucifer yellow to monitor MDCKII cell monolayer integrity.
For the apical to basolateral determination (A to B), 75 μL of the test article in transport buffer were added to the apical side of the individual transwells and 250 μL of basolateral media, without compound or lucifer yellow, were added to each well. For the basolateral to apical determination (B to A), 250 μL of test article in transport buffer were added to each well and 75 μL transport buffer, without compound or lucifer yellow, were added to each transwell. All tests were performed in triplicate, and each compound was tested for both apical to basolateral and basolateral to apical transport. The plates were incubated for 2 hours on a Lab-Line Instruments Titer Orbital Shaker (VWR, West Chester, PA) at 50 rpm and 37° C. with 5% CO2. All culture plates were removed from the incubator, 50 μL of media were removed from the apical and basolateral portion of each well, and added to 150 μL of 1 μM labetalol in 2:1 acetonitrile (ACN): H2O, v/v.
The plates were read using a Molecular Devices (Sunnyvale, CA) Gemini Fluorometer to evaluate the lucifer yellow concentrations at excitation/emission wavelengths of 425/535 nm. These values were accepted when found to be below 2% for apical to basolateral and 5% basolateral to apical flux across the MDR1-transfected LLC-PK1 or BCRP-transfected MDCKII cell monolayers. The plates were sealed, and the contents of each well analyzed by LC MS/MS. The compound concentrations were determined from the ratio of the peak areas of the compound to the internal standard (labetalol) in comparison to the dosing solution.
A MDS Sciex API 4000 (Applied Biosystems, Foster City, CA) mass spectrometer was used for detection of the analytes in the ion spray positive mode. Analyte responses were measured by multiple reaction monitoring (“MRM”) of transitions unique to each compound (the protonated precursor ion and selected product ions for each test article and m/z 329 to m/z 162 for labetalol, the internal standard.
The total run time, including re-equilibration, for a single injection was 1.2 minutes. […] The total run time, including re-equilibration, for a single injection was 0.61 minutes.
An efflux ratio is calculated from the mean apical to basolateral (A-B) Papp data and basolateral to apical (B-A) Papp data: Efflux ratio=Papp(B−A)/Papp(A−B)

[4] = molecular target: EGFR wild type (EGFR WT) (Homo sapiens (Human), UniProt P00533); assay: Cellular phosphorylation assay, EGF-stimulated EGFR phosphorylation in engineered NIH 3T3 cells, Phospho-EGFR DuoSet IC ELISA, Assay 5; type: cell-based
Procedure, shortened: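 NIH 3T3 cells expressing EGFR WT (20,000/well, attached overnight) were exposed to serially diluted compound for 1 h at 37 °C, then stimulated with 100 ng/ml rEGF for 10 min. Phospho-EGFR in lysates measured by sandwich ELISA optical density; IC50 from curves.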

[5] = molecular target: EGFR (Homo sapiens (Human), UniProt P00533); assay: ErbB enzyme assay (CisBio HTRF KinEASE-TK), Assay 3; type: biochemical
Procedure, shortened: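 Kinase incubated 30 min at 22 °C with 250 nM biotinylated TK substrate, 1 mM ATP and serially diluted compound in 25 mM HEPES pH 7.4, 10 mM MgCl2, 0.01% Triton X-100, 2% DMSO. Phosphorylation read by HTRF (Sa-XL665/TK-Ab-Cryptate); IC50 from 4-parameter fit of percent of control.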

[6] = molecular target: ErbB2 WT (Homo sapiens (Human), UniProt P04626); assay: ErbB enzyme assay (CisBio HTRF KinEASE-TK), Assay 2; type: biochemical
Chain of ErbB2 WT (P04626 23-1255): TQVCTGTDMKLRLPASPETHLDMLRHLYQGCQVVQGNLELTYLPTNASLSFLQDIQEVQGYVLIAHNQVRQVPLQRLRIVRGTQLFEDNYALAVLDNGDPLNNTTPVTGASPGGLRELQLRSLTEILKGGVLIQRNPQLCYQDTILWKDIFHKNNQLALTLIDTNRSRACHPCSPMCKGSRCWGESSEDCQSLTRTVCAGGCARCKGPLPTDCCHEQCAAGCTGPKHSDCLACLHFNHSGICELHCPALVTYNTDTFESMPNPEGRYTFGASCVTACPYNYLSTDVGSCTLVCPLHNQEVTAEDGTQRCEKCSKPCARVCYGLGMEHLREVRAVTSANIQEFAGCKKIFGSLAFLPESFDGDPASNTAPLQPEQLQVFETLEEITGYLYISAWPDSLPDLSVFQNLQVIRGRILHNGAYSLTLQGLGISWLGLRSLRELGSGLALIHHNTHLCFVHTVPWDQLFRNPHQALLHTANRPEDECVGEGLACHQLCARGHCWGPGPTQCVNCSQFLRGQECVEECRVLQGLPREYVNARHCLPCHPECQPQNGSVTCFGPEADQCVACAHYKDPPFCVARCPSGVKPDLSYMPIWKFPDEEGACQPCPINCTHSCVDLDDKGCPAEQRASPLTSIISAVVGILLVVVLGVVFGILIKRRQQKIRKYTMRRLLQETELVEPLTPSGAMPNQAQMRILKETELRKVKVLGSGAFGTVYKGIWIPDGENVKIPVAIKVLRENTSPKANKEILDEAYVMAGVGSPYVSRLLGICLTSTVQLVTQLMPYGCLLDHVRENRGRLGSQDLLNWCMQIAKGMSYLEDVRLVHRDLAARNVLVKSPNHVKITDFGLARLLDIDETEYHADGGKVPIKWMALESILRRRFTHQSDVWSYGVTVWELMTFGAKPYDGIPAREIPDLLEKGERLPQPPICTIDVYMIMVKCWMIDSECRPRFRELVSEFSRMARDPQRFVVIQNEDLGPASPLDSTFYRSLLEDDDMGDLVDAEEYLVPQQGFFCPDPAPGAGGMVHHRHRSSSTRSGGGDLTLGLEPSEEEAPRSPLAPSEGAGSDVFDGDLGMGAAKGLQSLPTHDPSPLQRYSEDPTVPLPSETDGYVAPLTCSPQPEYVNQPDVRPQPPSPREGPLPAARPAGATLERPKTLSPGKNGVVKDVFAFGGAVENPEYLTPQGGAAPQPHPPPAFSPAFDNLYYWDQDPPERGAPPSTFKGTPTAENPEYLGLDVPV
Procedure, shortened: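 ErbB2 phosphorylates 250 nM biotin-TK substrate at 1 mM ATP in 25 mM HEPES pH 7.4, 10 mM MgCl2, 0.01% Triton X-100 and 2% DMSO, for 30 min at 22 °C. Product is detected by HTRF with Sa-XL665 and TK-Ab-Cryptate. Percent of control is set by DMSO-only wells and pre-quenched wells.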

[7] = molecular target: BCRP (Homo sapiens (Human), UniProt Q9UNQ0); assay: BCRP transfected MDCKII canine Mdr1 knockout permeability/efflux, Assay 9; settings: dog, Assay 9 Pe Ratio, efflux ratio Papp(B-A)/Papp(A-B), BCRP transfected MDCKII canine Mdr1 knockout
Chain of BCRP (Q9UNQ0 whole entry): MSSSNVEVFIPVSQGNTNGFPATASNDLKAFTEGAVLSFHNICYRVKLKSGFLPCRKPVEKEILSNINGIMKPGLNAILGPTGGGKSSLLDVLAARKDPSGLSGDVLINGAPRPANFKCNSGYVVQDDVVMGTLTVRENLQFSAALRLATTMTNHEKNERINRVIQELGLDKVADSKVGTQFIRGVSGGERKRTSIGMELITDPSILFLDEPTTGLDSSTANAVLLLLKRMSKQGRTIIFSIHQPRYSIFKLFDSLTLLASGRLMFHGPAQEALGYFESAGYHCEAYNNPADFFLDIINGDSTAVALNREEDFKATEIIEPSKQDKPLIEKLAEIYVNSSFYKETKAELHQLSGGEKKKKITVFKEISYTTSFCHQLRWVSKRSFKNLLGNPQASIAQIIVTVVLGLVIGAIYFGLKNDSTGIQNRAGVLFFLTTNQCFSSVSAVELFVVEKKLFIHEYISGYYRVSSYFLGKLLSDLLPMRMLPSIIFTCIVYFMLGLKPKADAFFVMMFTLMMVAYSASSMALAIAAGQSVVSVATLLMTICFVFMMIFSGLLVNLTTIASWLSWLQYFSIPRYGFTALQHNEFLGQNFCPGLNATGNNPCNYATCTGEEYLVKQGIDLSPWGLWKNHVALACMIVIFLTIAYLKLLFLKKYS

[8] = molecular target: T1, MDR1 (P-gp); assay: MDR1 transfected LLC-PK1 permeability/efflux, Assay 6; settings: pig, LLC-PK1, Assay 6 Pe Ratio, efflux ratio Papp(B-A)/Papp(A-B), MDR1 transfected LLC-PK1

Chain of ErbB2 insYVMA (HER2-YVMA, SEQ ID NO: 2) (P04626 with tags, fused parts or gaps INS775YVMA/P1170A limits assumed): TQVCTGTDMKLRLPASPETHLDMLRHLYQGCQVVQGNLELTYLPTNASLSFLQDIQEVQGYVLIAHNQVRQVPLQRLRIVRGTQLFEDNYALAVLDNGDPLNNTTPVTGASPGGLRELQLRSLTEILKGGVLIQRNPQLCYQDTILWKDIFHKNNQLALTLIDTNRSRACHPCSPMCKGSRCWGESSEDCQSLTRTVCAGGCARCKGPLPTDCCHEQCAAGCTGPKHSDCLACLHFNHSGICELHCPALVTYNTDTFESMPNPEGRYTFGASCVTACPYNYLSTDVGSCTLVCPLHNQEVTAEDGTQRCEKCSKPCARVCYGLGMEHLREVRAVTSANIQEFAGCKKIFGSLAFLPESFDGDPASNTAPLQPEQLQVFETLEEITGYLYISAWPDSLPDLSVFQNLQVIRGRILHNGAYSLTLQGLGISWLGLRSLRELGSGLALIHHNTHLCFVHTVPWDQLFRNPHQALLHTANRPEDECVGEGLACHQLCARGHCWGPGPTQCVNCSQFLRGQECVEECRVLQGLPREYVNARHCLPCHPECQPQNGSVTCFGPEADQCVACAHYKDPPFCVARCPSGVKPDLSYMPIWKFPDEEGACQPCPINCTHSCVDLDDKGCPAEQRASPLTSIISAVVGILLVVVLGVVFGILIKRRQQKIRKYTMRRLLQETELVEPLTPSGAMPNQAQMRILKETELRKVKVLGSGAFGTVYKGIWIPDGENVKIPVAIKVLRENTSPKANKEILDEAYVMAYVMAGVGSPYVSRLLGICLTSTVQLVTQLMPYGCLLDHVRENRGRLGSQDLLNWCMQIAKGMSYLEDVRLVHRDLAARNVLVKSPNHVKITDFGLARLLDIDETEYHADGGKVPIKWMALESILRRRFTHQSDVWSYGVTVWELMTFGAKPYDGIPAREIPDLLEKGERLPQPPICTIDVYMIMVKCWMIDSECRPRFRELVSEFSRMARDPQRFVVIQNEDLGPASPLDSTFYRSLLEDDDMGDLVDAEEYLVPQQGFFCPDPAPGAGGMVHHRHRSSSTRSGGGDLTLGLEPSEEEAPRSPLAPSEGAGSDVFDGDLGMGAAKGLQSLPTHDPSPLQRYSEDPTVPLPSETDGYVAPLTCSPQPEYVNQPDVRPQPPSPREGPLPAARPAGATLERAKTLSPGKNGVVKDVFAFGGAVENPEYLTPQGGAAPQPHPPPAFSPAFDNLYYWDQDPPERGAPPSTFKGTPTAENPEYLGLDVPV

Row | Structure (SMILES) | IC50 ([1]; read-out: Assay 1 IC50) | IC50 [2] | efflux ratio at 2 h, 1 μM [3] | IC50 [4] | IC50 [5] | IC50 ([1]; Assay 1 IC50 (nM)) | IC50 [6] | efflux ratio at 2 h, 1 μM [7] | efflux ratio at 2 h, 1 μM [8]
1 | Cc1cc(Nc2ncnc3cnc(N(C)C[C@H](C)O)nc23)ccc1Oc1ccc2c(c1)ncn2C [Example 195, (S)-1-(methyl(8-((3-methyl-4-((1-methyl-1H-benzo[d]imidazol-5-yl)oxy)phenyl)amino)pyrimido[5,4-d]pyrimidin-2-yl)amino)propan-2-ol] | 17.3 nM | 10.1 nM | 4.6 | ≥ 5000 nM | 7290 nM |  |  |  | 
2 | Cn1cnc2cc(Oc3ccc(Nc4ncnc5cnc(N6CCC6)nc45)cc3Cl)ccc21.O=C(O)C(F)(F)F [Example 148, 6-(azetidin-1-yl)-N-(3-chloro-4-((1-methyl-1H-benzo[d]imidazol-5-yl)oxy)phenyl)pyrimido[5,4-d]pyrimidin-4-amine 2,2,2-trifluoroacetate] |  | 13 nM | 1.3 | ≥ 5000 nM | ≥ 10000 nM | 24.3 nM | 34 nM |  | 
3 | CO[C@@H]1CN(c2ncc3ncnc(Nc4ccc(Oc5ccc6c(c5)ncn6C)c(C)c4)c3n2)C[C@H]1O (racemic) [Example 107, ±(3R,4R)-4-methoxy-1-(8-((3-methyl-4-((1-methyl-1H-benzo[d]imidazol-5-yl)oxy)phenyl)amino)pyrimido[5,4-d]pyrimidin-2-yl)pyrrolidin-3-ol] | 30.8 nM | 31.3 nM | 3.2 | ≥ 5000 nM | ≥ 10000 nM |  | 15.5 nM |  | 
4 | Cc1cc(Nc2ncnc3cnc(N4C[C@@H]5C[C@H]4C[C@@H]5O)nc23)ccc1Oc1ccc2c(c1)ncn2C [Example 470] | 38.3 nM | 24.3 nM | 2.5 | ≥ 5000 nM | 6840 nM |  | 52.3 nM |  | 
5 | Cc1c(Oc2ccc3c(c2)ncn3C)ccc(Nc2ncnc3cnc(N4CC[C@](C)(O)C4)nc23)c1F [Example 97, (S)-1-(8-((2-fluoro-3-methyl-4-((1-methyl-1H-benzo[d]imidazol-5-yl)oxy)phenyl)amino)pyrimido[5,4-d]pyrimidin-2-yl)-3-methylpyrrolidin-3-ol] | 14.2 nM | 47.5 nM | 2 | ≥ 5000 nM | ≥ 10000 nM |  | 31 nM |  | 
6 | Cc1cc(Nc2ncnc3cnc(N4CCC(CC#N)C4)nc23)ccc1Oc1ccc2c(c1)ncn2C (stereo not drawn) [Example 192, 2-(1-(8-((3-methyl-4-((1-methyl-1H-benzo[d]imidazol-5-yl)oxy)phenyl)amino)pyrimido[5,4-d]pyrimidin-2-yl)pyrrolidin-3-yl)acetonitrile] | 19.1 nM | 13.1 nM | 1.6 | ≥ 5000 nM | ≥ 10000 nM |  | 44.8 nM |  | 
7 | Cc1cc(Nc2ncnc3cnc(N4CC[C@H](O)C4)nc23)ccc1Oc1ccc2c(c1)ncn2C [Example 174, (S)-1-(8-((3-methyl-4-((1-methyl-1H-benzo[d]imidazol-5-yl)oxy)phenyl)amino)pyrimido[5,4-d]pyrimidin-2-yl)pyrrolidin-3-ol] | 11.5 nM | 8 nM | 3.1 | ≥ 5000 nM | 2770 nM |  | 31.4 nM |  | 
8 | CC1(O)CCN(c2ncc3ncnc(Nc4ccc(Oc5ccn6ncnc6c5)c(Cl)c4)c3n2)CC1 [Example 435] | 11.8 nM | 34.7 nM | 1.2 | ≥ 5000 nM | 4910 nM |  | 32.8 nM |  | 
9 | Cc1cc(Nc2ncnc3cnc(N4CC[C@H](F)[C@@H](O)C4)nc23)ccc1Oc1ccc2c(c1)ncn2C [Example 162, (3S,4S)-4-fluoro-1-(8-((3-methyl-4-((1-methyl-1H-benzo[d]imidazol-5-yl)oxy)phenyl)amino)pyrimido[5,4-d]pyrimidin-2-yl)piperidin-3-ol] | 19.4 nM | 36.4 nM | 2.8 | ≥ 5000 nM | 7360 nM |  | 31.6 nM |  | 
10 | Cc1cc(Nc2ncnc3cnc(N4CC[C@@H](O)C4)nc23)ccc1Oc1ccc2c(c1)ncn2C [Example 169, (R)-1-(8-((3-methyl-4-((1-methyl-1H-benzo[d]imidazol-5-yl)oxy)phenyl)amino)pyrimido[5,4-d]pyrimidin-2-yl)pyrrolidin-3-ol] | 8.5 nM | 4.7 nM | 3.6 | ≥ 5000 nM | 1630 nM |  | 11.2 nM |  | 
11 | Cc1cc(Nc2ncnc3cnc(N4CC[C@H](CC#N)C4)nc23)ccc1Oc1ccc2c(c1)ncn2C [Example 469] | 19.1 nM | 13.1 nM | 1.6 | ≥ 5000 nM | ≥ 10000 nM |  | 44.8 nM |  | 
12 | Cc1cc(Nc2ncnc3cnc(NCC4(O)COC4)nc23)ccc1Oc1ccc2c(c1)ncn2C [Example 319] | 16.7 nM | 26.3 nM | 10.6 | ≥ 5000 nM | 870 nM |  | 4.5 nM |  | 
13 | Cc1cc(Nc2ncnc3cnc(N4CCO[C@H]5C[C@H]54)nc23)ccc1Oc1ccc2c(c1)ncn2C [Example 161, 6-((1S,6R)-2-oxa-5-azabicyclo[4.1.0]heptan-5-yl)-N-(3-methyl-4-((1-methyl-1H-benzo[d]imidazol-5-yl)oxy)phenyl)pyrimido[5,4-d]pyrimidin-4-amine] | 18.4 nM | 16 nM |  | ≥ 5000 nM | 8280 nM |  | 28.9 nM | 1.2 | 1.8
14 | Cc1ncc(-c2ncc3ncnc(Nc4ccc(Oc5ccc6c(c5)ncn6C)c(C)c4)c3n2)o1 [Example 223] | 91.6 nM | 12.7 nM |  | ≥ 5000 nM | ≥ 10000 nM |  | 101 nM | 3.7 | 1.9
15 | Cc1cc(Nc2ncnc3cnc(N4C[C@@H]5C[C@H]4CO5)nc23)ccc1Oc1ccc2c(c1)ncn2C [Example 274] | 30.7 nM | 12.1 nM |  | ≥ 5000 nM | 3250 nM |  | 38.8 nM | 1.7 | 2.4
16 | Cc1cc(Nc2ncnc3cnc(N4C[C@H]5CC[C@@H]4CO5)nc23)ccc1Oc1ccc2c(c1)ncn2C [Example 54, 6-((1R,4R)-2-oxa-5-azabicyclo[2.2.2]octan-5-yl)-N-(3-methyl-4-((1-methyl-1H-benzo[d]imidazol-5-yl)oxy)phenyl)pyrimido[5,4-d]pyrimidin-4-amine] | 5.6 nM | 17.8 nM |  | ≥ 5000 nM | 3430 nM |  | 31.3 nM | 1.1 | 1.4
17 | Cc1cc(Nc2ncnc3cnc(NCC(F)F)nc23)ccc1Oc1cc(F)c2c(c1)ncn2C [Example 207, N2-(2,2-difluoroethyl)-N8-(4-((7-fluoro-1-methyl-1H-benzo[d]imidazol-5-yl)oxy)-3-methylphenyl)pyrimido[5,4-d]pyrimidine-2,8-diamine] | 22.4 nM | 16.9 nM |  | ≥ 5000 nM | 1720 nM |  | 45.1 nM | 1.7 | 1.6
18 | Cc1cc(Nc2ncnc3cnc(N4C[C@@H]5CC[C@H]4CO5)nc23)ccc1Oc1ccc2c(c1)ncn2C [Example 53, 6-((1S,4S)-2-oxa-5-azabicyclo[2.2.2]octan-5-yl)-N-(3-methyl-4-((1-methyl-1H-benzo[d]imidazol-5-yl)oxy)phenyl)pyrimido[5,4-d]pyrimidin-4-amine] | 25 nM | 42.7 nM |  | ≥ 5000 nM | ≥ 10000 nM |  | 75.2 nM | 1.6 | 1.7
19 | Cc1cc(Nc2ncnc3cnc(-c4ccccn4)nc23)ccc1Oc1ccc2c(c1)ncn2C [Example 239] | 127 nM | 9.1 nM |  | ≥ 5000 nM | ≥ 10000 nM |  | 107 nM | 3.5 | 2.1
